IC50 and inhibition data for two molecules are collected here from ChEMBL document CHEMBL5678810.

The target in experiment [1] is Mitogen-activated protein kinase 7 (Homo sapiens, UniProt Q13164). The experiment can be described thus: Inhibition of GST-tagged ERK5 (unknown origin) expressed in baculovirus expression system incubated for 90 mins in presence of ATP by PKLight ATP Detection Reagent based analysis.
Experiment [2] concerns the target Dual specificity mitogen-activated protein kinase kinase 5 (Homo sapiens, UniProt Q13163). Put plainly: Inhibition of GST-tagged MEK5 (unknown origin) expressed in baculovirus expression system incubated for 90 mins in presence of ATP by PKLight ATP Detection Reagent based analysis.
Experiment [3] has as its target Peripheral plasma membrane protein CASK (Homo sapiens) (UniProt O14936). Put plainly: Inhibition of T7 bacteriophage fused human CASK at 10 uM by KINOMEscan analysis relative to control.
Experiment [4] deals with Ribosomal protein S6 kinase alpha-2 (Homo sapiens) (UniProt Q15349). Put plainly: Inhibition of T7 bacteriophage fused human C-terminal RSK3 Kinase domain-2 at 10 uM by KINOMEscan analysis relative to control.
Chain of Ribosomal protein S6 kinase alpha-2 (Homo sapiens) (Q15349 whole entry, the tested form may be a part): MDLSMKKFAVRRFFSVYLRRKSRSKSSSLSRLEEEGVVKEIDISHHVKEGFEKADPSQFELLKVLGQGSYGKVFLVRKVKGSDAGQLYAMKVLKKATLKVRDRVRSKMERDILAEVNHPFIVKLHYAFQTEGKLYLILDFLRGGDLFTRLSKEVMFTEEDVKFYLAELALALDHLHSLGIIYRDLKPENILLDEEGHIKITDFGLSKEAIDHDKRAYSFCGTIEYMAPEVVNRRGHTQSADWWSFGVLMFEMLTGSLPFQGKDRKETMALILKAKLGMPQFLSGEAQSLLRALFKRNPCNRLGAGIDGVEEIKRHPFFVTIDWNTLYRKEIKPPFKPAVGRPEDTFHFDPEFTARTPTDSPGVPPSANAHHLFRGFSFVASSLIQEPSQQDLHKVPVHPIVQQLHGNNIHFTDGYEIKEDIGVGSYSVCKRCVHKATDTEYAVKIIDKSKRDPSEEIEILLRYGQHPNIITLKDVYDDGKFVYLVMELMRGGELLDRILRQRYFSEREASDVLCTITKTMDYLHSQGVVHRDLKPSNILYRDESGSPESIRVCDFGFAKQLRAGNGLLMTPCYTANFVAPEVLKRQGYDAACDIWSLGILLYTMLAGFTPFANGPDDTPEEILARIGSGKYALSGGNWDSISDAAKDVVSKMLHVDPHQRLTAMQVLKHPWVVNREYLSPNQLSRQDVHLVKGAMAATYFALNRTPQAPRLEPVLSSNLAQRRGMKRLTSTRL
The target in experiment [5] is STE20-like serine/threonine-protein kinase (Homo sapiens) (UniProt Q9H2G2). The experiment can be described thus: Inhibition of T7 bacteriophage fused human SLK at 10 uM by KINOMEscan analysis relative to control.
Chain of STE20-like serine/threonine-protein kinase (Homo sapiens) (Q9H2G2 whole entry, looked up, the tested form may be a part): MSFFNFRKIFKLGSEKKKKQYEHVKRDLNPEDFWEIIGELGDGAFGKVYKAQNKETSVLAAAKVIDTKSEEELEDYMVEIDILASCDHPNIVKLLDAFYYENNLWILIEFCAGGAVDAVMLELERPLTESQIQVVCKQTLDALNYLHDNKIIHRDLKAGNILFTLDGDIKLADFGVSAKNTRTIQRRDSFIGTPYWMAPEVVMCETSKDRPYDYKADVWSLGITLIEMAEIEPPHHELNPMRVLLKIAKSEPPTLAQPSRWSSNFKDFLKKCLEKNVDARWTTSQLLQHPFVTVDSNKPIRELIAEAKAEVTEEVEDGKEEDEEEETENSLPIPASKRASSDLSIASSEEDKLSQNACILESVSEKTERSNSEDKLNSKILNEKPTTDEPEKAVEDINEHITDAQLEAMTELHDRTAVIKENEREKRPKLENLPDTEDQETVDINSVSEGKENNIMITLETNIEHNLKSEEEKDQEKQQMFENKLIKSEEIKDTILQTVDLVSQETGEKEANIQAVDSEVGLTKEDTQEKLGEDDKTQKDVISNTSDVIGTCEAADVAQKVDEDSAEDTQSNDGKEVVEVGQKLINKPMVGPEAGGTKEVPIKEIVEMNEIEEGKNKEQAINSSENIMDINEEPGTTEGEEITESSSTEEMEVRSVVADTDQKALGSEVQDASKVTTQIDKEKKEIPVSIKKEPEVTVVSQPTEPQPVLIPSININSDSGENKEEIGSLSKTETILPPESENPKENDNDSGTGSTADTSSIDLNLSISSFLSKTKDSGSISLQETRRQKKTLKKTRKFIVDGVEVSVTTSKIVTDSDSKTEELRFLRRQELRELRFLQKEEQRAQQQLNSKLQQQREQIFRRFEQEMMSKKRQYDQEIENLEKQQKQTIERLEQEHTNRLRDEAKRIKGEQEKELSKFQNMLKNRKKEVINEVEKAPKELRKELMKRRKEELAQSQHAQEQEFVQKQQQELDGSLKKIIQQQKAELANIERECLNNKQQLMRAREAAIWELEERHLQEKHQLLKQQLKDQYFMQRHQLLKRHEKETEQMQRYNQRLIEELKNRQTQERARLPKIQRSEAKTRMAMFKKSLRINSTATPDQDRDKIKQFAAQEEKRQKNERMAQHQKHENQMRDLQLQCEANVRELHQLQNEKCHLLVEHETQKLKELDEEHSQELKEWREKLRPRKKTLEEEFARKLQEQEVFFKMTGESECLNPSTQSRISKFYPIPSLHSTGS
Experiment [6] has as its target Tyrosine-protein kinase Tec (Homo sapiens) (UniProt P42680). The experiment can be described thus: Inhibition of T7 bacteriophage fused human TEC at 10 uM by KINOMEscan analysis relative to control.
Experiment [7] deals with T1, Dual specificity protein kinase TTK (Homo sapiens) (UniProt P33981).
T1 sequence (whole entry): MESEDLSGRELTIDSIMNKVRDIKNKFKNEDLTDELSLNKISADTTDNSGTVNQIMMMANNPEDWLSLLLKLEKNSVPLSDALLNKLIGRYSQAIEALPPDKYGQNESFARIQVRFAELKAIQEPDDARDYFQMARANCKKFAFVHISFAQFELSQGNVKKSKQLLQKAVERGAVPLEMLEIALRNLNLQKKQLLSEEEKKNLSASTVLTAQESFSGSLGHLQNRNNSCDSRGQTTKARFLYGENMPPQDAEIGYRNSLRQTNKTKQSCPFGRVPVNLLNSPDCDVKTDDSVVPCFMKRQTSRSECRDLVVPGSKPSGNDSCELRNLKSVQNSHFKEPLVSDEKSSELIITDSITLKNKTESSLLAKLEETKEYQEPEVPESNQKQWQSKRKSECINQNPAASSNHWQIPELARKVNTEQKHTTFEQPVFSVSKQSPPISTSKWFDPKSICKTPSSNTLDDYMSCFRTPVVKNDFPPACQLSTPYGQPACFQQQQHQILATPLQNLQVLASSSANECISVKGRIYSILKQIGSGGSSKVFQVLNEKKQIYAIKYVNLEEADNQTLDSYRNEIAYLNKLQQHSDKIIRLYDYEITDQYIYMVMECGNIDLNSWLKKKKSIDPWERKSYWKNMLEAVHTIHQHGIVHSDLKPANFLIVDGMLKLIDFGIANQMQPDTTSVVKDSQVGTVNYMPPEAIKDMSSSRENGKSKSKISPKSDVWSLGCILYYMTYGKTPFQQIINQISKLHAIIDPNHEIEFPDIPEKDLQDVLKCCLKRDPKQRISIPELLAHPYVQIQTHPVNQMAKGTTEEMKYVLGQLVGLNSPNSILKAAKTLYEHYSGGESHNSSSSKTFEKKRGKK
The experiment can be described thus: Inhibition of T7 bacteriophage fused human TTK at 10 uM by KINOMEscan analysis relative to control.

Experiment [8] concerns the target Ribosomal protein S6 kinase alpha-6 (Homo sapiens) (UniProt Q9UK32). Put plainly: Inhibition of T7 bacteriophage fused human C-terminal RSK4 Kinase domain-2 at 10 uM by KINOMEscan analysis relative to control.

Chain of Ribosomal protein S6 kinase alpha-6 (Homo sapiens) (Q9UK32 whole entry, the tested form may be a part): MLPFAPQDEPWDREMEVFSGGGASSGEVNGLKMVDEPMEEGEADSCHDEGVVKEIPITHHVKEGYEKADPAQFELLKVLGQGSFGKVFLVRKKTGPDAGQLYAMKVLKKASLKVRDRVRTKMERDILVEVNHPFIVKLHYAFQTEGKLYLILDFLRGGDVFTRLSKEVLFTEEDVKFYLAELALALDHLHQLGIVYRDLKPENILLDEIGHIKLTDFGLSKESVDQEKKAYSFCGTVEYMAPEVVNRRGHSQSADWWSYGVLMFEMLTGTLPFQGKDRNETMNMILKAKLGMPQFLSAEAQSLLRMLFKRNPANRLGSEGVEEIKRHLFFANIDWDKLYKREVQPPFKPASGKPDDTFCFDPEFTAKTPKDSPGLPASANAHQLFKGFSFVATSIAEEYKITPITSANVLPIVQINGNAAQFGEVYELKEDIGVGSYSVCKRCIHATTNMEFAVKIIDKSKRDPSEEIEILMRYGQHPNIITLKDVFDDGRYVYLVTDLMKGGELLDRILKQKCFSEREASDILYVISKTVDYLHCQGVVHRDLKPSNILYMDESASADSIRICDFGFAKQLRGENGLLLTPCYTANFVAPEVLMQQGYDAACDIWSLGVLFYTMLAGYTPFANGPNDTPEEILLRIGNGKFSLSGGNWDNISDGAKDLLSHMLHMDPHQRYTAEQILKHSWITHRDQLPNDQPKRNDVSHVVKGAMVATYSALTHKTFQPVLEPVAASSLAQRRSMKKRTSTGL
Chain of Mitogen-activated protein kinase 7 (Q13164 whole entry): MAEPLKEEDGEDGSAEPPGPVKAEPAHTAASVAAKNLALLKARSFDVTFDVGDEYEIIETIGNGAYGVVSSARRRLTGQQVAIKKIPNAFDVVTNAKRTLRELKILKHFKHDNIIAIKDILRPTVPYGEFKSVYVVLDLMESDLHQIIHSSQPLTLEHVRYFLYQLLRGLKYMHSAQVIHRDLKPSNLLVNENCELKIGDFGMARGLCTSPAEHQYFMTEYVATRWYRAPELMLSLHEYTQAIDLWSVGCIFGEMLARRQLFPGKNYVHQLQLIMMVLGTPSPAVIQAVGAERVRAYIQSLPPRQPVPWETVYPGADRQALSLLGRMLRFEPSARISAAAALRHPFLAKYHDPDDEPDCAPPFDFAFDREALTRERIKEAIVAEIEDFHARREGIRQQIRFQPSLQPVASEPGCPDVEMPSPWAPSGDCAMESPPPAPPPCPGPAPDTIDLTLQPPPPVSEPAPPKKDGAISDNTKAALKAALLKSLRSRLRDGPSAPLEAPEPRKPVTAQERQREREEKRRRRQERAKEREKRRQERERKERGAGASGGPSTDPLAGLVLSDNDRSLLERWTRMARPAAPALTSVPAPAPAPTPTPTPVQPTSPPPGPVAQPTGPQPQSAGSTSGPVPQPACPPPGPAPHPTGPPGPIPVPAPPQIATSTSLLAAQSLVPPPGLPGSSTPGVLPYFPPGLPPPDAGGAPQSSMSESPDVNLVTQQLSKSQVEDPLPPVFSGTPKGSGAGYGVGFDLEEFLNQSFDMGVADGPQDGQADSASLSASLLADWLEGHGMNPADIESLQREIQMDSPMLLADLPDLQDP
Chain of Dual specificity mitogen-activated protein kinase kinase 5 (Q13163 whole entry, the tested form may be a part): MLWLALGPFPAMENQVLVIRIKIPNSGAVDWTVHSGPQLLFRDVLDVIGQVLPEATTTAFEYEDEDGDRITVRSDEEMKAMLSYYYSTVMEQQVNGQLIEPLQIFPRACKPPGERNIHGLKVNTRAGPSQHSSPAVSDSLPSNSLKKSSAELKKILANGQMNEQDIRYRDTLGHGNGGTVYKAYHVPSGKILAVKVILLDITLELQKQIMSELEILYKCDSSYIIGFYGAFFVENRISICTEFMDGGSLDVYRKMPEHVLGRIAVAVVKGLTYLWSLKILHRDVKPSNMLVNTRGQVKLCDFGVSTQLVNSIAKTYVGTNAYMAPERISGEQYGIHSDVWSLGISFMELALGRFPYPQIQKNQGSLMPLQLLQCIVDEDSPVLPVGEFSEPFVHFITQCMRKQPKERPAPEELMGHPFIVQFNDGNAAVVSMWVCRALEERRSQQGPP
Chain of Tyrosine-protein kinase Tec (Homo sapiens) (P42680 whole entry, looked up, the tested form may be a part): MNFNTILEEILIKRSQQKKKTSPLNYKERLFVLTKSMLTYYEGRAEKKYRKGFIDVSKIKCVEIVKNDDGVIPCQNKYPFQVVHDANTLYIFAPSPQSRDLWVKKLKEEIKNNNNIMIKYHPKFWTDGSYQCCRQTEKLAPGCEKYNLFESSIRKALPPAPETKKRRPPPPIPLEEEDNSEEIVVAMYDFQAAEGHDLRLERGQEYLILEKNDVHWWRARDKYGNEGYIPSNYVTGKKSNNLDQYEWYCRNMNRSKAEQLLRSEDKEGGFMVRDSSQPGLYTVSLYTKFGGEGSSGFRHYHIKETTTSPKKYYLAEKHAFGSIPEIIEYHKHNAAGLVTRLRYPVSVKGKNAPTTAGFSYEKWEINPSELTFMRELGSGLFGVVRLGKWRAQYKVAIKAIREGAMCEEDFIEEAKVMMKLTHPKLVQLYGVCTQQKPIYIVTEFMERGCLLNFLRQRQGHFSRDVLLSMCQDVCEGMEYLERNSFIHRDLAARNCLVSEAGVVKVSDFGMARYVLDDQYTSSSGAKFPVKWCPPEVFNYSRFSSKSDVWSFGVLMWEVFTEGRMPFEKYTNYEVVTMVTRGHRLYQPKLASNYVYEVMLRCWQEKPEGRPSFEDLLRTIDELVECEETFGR

With `CN(C)Cc1cccc(N/C(=C2\C(=O)Nc3cc(C(N)=O)ccc32)c2ccccc2)c1`, the half-maximal inhibitory concentration (IC50) in experiment [1] was found to be 810 nM; in experiment [2], 4.3 nM.

With `COc1cc(C(=O)N2CCC(N3CCN(C)CC3)CC2)ccc1Nc1ncc2c(n1)N1CCc3cccc(c31)C(=O)N2C`, the inhibition in experiment [3] came out at 100%; in experiment [4], 13%; in experiment [5], 49%; in experiment [6], 100%; in experiment [7], 46%; in experiment [8] it was 5.2%.
